One series has as its system EAE model. The experiment in a line: Single vs. weekly dosing in murine EAE MS model. The format is in vivo, mice. The note with it: single 20 mg/kg IP dose at onset of symptoms, first onset of disease (10-20 days). The procedure:
In this example, female SJL/J mice (6-7 weeks old) were immunized with proteolipid protein (“PLP”) in CFA and pertussis toxin IV on day 0. The mice were boosted with PLP in IFA on day seven. At the onset of symptoms, mice received either a single 20 mg/kg dose of KU-32 IP, weekly 2 mg/kg IP doses of KU-32, or no treatment. The mice were scored daily for severity of disease and body weight.

For series [1], the system named is neuregulin-induced demyelination. In words: Cell culture model of myelinated nerve. The format is cell-based. The text has this: Diabetic peripheral neuropathy (DPN) results from the degeneration of nerves that transmit sensations from the legs and arms. Schwann cells are specialized cells that closely associate with many nerves and also undergo profound changes in DPN. Schwann cells are necessary to form the myelin membrane that is present on many peripheral nerves and the loss of this myelin membrane is a common characteristic of human diabetic neuropathy. Identifying molecular mechanisms that may prevent demyelination or enhance remyelination are therefore good targets for therapeutic interventions in human DPN. Altered neurotrophism in DPN is described in detail in, for example, Dobrowsky et al., JPET 313:485-491, 2005. Heat shock protein 90 inhibitors offer a potential therapeutic approach toward treating DPN. A cell culture model of myelinated nerve was used to identify new molecular targets that can prevent demyelination.

For series [2], the system named is streptozotocin (STZ)-induced diabetic neuropathy. In words: STZ-induced diabetic neuropathy mouse model, initial studies (treatment after 8 weeks of diabetes). The series is classed as in vivo. As to the method: Physiological studies were performed in a diabetic mouse model to determine if KU-32 is suitable for further pre-clinical development. A mouse model of streptozotocin (STZ)-induced diabetic neuropathy was utilized. One such diabetic mouse model is described, for example, in Christianson et al., Neuroscience, 2007, 145 (1): 303-313. […] Thus, although the drug was capable of attenuating the decline in SNCV, a more powerful indicator of efficacy and clinical usefulness was desired to indicate the drug could reverse a pre-existing deficit in NCV. […] The study was therefore repeated with a larger trial size and under more stringent long-term diabetic conditions prior to weekly drug administration.

The test system of series [3] is Experimental Autoimmune Encephalomyelitis; EAE. The experiment in a line: Daily dosing in murine EAE multiple sclerosis model. The format is in vivo, mice. The text has this:
In this example, female SJL/J mice (6-7 weeks old) were immunized with proteolipid protein (“PLP”) in CFA and pertussis toxin IV on day 0. The mice were boosted with PLP in IFA on day seven.

Series [4] in a line: Pharmacokinetics: plasma and brain levels of KU-32 in mice by LC-MS. The format is in vivo. The following applies: female Balb/c mice, 2 or 20 mg/kg, IP or IV injection, FIG. 1. The procedure: (§1) The plasma and brain levels of the Hsp90 inhibitor KU-32 as a function of time in mice were investigated following IP or IV injection to mice. Pharmacokinetics of KU-32 levels in mouse plasma and brain was determined by LC-MS. For these studies, female Balb/c mice (6-7 weeks) were injected with either 2 or 20 mg/kg KU-32 or vehicle. Mice were sacrificed at predetermined time points and plasma was collected following cardiac puncture for determination of KU-32 levels. The animals were perfused with normal saline and the brain was harvested and homogenized. Half the brain was analyzed for KU-32 levels and the remaining half was analyzed for Hsp70 levels.

Series [5] concerns streptozotocin (STZ)-induced diabetic neuropathy. The experiment in a line: STZ-induced diabetic neuropathy mouse model, second trial (treatment after 12 weeks of diabetes). The format is in vivo. The procedure: In a second trial, mice were rendered diabetic for 12 weeks. Diabetes was induced in test mice by 3 injections of streptozotocin (STZ) (n=28), and control mice (n=28) received a vehicle injection. Nerve conduction velocity (NCV) was measured in 4 mice from each group after 12 weeks, prior to initiating KU-32 treatment, after which time they developed substantial deficits in MNCV and SNCV (FIG. 7). Asterisks indicates p<0.05 compared to the time matched control. Diabetic mice also developed a substantial mechanical hypoalgesia after 5 weeks (FIG. 8) and a rapid onset of a thermal hypoalgesia (FIG. 9). Thus, any improvements by KU-32 were considered to be indicative of reversibility of a pre-existing deficits and not prevention.
After 12 weeks of diabetes, mice received weekly doses of 20 mg/kg KU-32 or vehicle by IP injection, and thermal and mechanical hypoalgesia were monitored. […] The asterisk indicates p<0.05 compared to the time matched control. The carat indicates p<0.05 compared to 14 weeks of STZ-Veh. Animal numbers were n=28 for Veh-Veh and STZ-Veh up to 12 weeks. Group numbers were n=12 at initiation of KU-32 and its vehicle (Veh).
The asterisk indicates p<0.05 compared to the time matched control, and the carat indicates p<0.05 compared to 14 weeks of STZ-Veh. Animal numbers were n=28 for Veh-Veh and STZ-Veh up to 12 weeks. Group numbers were n=12 at initiation of KU-32 and its vehicle (Veh).
Importantly, a similar recovery was evident after 12 weeks of diabetes despite the onset in improvement requiring 4 weeks of treatment. The delay may relate to the more severe decline in the function of the smaller sensory fibers since treatment was not started until 12 weeks of diabetes. The diabetic mice were very ill after 16 weeks and therefore were terminated at this time. […] Since the deficits in mechanical and thermal hypoalgesia reached a plateau between 12-14 weeks, the measures at 14 weeks of diabetes were used to assess for statistical improvements in sensory function after 3 or more weeks of KU-32 treatment. […] Thus, KU-32 improves nerve function in the absence of an overall improvement in metabolic parameters related to diabetes, i.e., hyperglycemia and weight loss. The data provides solid proof-of-principle that KU-32 can effectively reverse pre-existing deficits in two sensory measures that are direct, clinically relevant, parallels of human symptoms.

The nature of series [6]: Phase-solubility of KU-32 in Captisol in water. The format is physicochemical. The procedure:
On day 12 of the study mice received 2, 5 or 10 mg/kg KU-32 by IP injection on a daily basis. KU-32 was formulated at all concentrations in 0.05 M Captisol®. To access the phase-solubility behavior of KU-32 in Captisol®, KU-32 in excess of its expected solubility were equilibrated with increasing concentrations of Captisol® in water. The suspensions were allowed to equilibrate at least 24-hours at 25° C., after which time the suspensions were centrifuged and the KU-32 concentration in the supernatant determined by RP-HPLC.

Another series relates to Hsp70. The experiment in a line: Hsp70 levels in mouse brain after KU-32 IP administration (Hsp70/actin densitometry). The format is in vivo, mice. The following applies: single IP injection 2 or 20 mg/kg, frontal and hind brain sections, FIG. 2. The procedure: as §1
Changes in Hsp70 levels in mouse brain over time following KU-32 IP administration were determined. The ratio of Hsp70 to actin was determined in frontal and hind brain sections recovered from brains of mice at each indicated time point shown in FIG. 2 following administration of either 2 or 20 mg/kg KU-32, as discussed in Example 1. Densitometric analyses were performed, and the ratio of the Hsp70 immunoreactivity was determined using actin as a loading control.

[7] abbreviates: weekly 20 mg/kg IP after 8 weeks of diabetes, did not reach significance.
Where [8] appears, read: diabetic animals receiving KU-32 compared to the diabetic mice.

SMILES strings stand for the structures.

On to `CO[C@@H]1[C@@H](O)[C@@H](O)[C@H](Oc2ccc3cc(NC(C)=O)c(=O)oc3c2C)OC1(C)C` [KU-32, N-(7-((2R,3R,4S,5R)-3,4-dihydroxy-5-methoxy-6,6-dimethyltetrahydro-2H-pyran-2-yloxy)-8-methyl-2-oxo-2H-chromen-3-yl)acetamide], for which the clinical score result in the series on EAE model (FIG. 5) is “better clinical score”; in series [3] (SJL/J mice, 2, 5 or 10 mg/kg IP daily from day 12, FIG. 4), “increase in the rate of onset and worsening of the disease”. The figures for the body weight result (with EAE model (FIG. 6); in series [5] (setting [8])) were “lost less body weight” and “no differences”, respectively. The neuregulin-induced demyelination entry in series [1] is “prevent neuregulin-induced demyelination”. Moreover, the “time to improvement in thermal sensitivity” value in series [2] (treatment initiated after 8 weeks of diabetes) is on record as “evident within two weeks”. Also, the thermal hypoalgesia result is recorded as “sufficient to improve thermal hypoalgesia” in series [2] (weekly 20 mg/kg IP after 8 weeks of diabetes) and “improved thermal hypoalgesia” in series [5] (weekly 20 mg/kg IP after 12 weeks of diabetes, FIG. 9). Moreover, the “sensory nerve conduction velocity (SNCV)” value in series [2] (weekly 20 mg/kg IP after 8 weeks of diabetes, decrease observed after 15 weeks of diabetes) is given as “helped to improve the decrease in sensory nerve conduction velocity”. The mechanical hypoalgesia result is “seemed to have an effect on mechanical hypoalgesia” in series [2] (setting [7]) and “significantly improved the mechanical hypoalgesia after 3 weeks of treatment” in series [5] (weekly 20 mg/kg IP after 12 weeks of diabetes, FIG. 8). In addition, in series [2] (setting [7]), the “motor NCV (MNCV) deficit” value is given as “improved the pre-existing motor NCV (MNCV) deficit”. Besides, the body weights entry in series [3] (SJL/J mice, 2, 5 or 10 mg/kg IP daily from day 12, FIG. 3) is “increase in the rate of onset and worsening of the disease”. For the same compound, in series [4], the “KU-32 levels in mouse plasma and brain over time” value was “fall below detectable limits by eight hours”. Further, the fasting blood glucose result in series [5] (setting [8]) is listed as “no differences”. Further, in series [5] (treatment started after 12 weeks of diabetes), the “onset in improvement of thermal sensitivity” value was 4 weeks of treatment. In addition, in series [6] (0.05-0.2 M Captisol in water, at least 24 hours at 25° C., RP-HPLC), the phase-solubility behavior entry is reported as “AP-type”. For the same compound, the “solubility in 0.05 M Captisol” value in series [6] (0.05 M Captisol) is on record as “adequate solubility”. For the same compound, the “Hsp70 levels in mouse brain (ratio of Hsp70 to actin)” value with Hsp70 is “increased following single IP injection of KU-32 in mice over a 72-96 hour period and remained elevated”.

The values are drawn from US20100022635A1, “Heat shock protein 90 inhibitor dosing methods” (University of Kansas, priority 2008, published 2010).
